Data published in PubChem BioAssay (NCI).
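The compound was tested at five concentrations on cells cultured in 96-well plates, with a 48-hour exposure period. TGI marks complete inhibition of growth.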

Assays:
Experiment in all cases: NCI anticancer screen, dose series, 48 h
UACC-257 melanoma = tested on: UACC-257 melanoma
TK-10 renal = tested on: TK-10 renal
MDA-MB-231 breast = tested on: MDA-MB-231 breast
MDA-MB-435 = tested on: MDA-MB-435
CAKI-1 renal = tested on: CAKI-1 renal
SF-539 CNS = tested on: SF-539 CNS
M14 melanoma = tested on: M14 melanoma
OVCAR-3 ovarian = tested on: OVCAR-3 ovarian
UO-31 renal = tested on: UO-31 renal
T-47D breast = tested on: T-47D breast
SF-268 CNS = tested on: SF-268 CNS
RXF 393 renal = tested on: RXF 393 renal
SK-MEL-28 melanoma = tested on: SK-MEL-28 melanoma
SW-620 colon = tested on: SW-620 colon
MOLT-4 leukemia = tested on: MOLT-4 leukemia
OVCAR-5 ovarian = tested on: OVCAR-5 ovarian
LOX IMVI melanoma = tested on: LOX IMVI melanoma
MDA-N = tested on: MDA-N
HS 578T breast = tested on: HS 578T breast
NCI-H460 lung = tested on: NCI-H460 lung
UACC-62 melanoma = tested on: UACC-62 melanoma
HL-60(TB) leukemia = tested on: HL-60(TB) leukemia
HOP-62 NSCLC = tested on: HOP-62 NSCLC
ACHN renal = tested on: ACHN renal
HT29 colon = tested on: HT29 colon
KM12 colon = tested on: KM12 colon
MALME-3M melanoma = tested on: MALME-3M melanoma
A549 NSCLC = tested on: A549 NSCLC
SNB-19 CNS = tested on: SNB-19 CNS
HCT-15 colon = tested on: HCT-15 colon
NCI-H23 lung = tested on: NCI-H23 lung
BT-549 breast = tested on: BT-549 breast
SK-MEL-2 melanoma = tested on: SK-MEL-2 melanoma
SK-OV-3 ovarian = tested on: SK-OV-3 ovarian
786-0 renal = tested on: 786-0 renal
SNB-75 CNS = tested on: SNB-75 CNS
DU-145 prostate = tested on: DU-145 prostate
SR leukemia = tested on: SR leukemia
NCI/ADR-RES ovarian = tested on: NCI/ADR-RES ovarian
K-562 leukemia = tested on: K-562 leukemia
SN12C renal = tested on: SN12C renal
HCC-2998 colon = tested on: HCC-2998 colon
MCF7 breast = tested on: MCF7 breast
SK-MEL-5 melanoma = tested on: SK-MEL-5 melanoma
OVCAR-8 ovarian = tested on: OVCAR-8 ovarian
HCT-116 colon = tested on: HCT-116 colon
IGROV1 ovarian = tested on: IGROV1 ovarian
NCI-H226 lung = tested on: NCI-H226 lung
PC-3 prostate = tested on: PC-3 prostate
RPMI-8226 leukemia = tested on: RPMI-8226 leukemia
OVCAR-4 ovarian = tested on: OVCAR-4 ovarian
EKVX NSCLC = tested on: EKVX NSCLC
U251 CNS = tested on: U251 CNS
CCRF-CEM leukemia = tested on: CCRF-CEM leukemia
COLO 205 colon = tested on: COLO 205 colon
SF-295 CNS = tested on: SF-295 CNS
HOP-92 NSCLC = tested on: HOP-92 NSCLC
A498 renal = tested on: A498 renal

Compound `COP(=O)(OC)C(C)(C)NC(=O)NC(F)(F)F` has a TGI (UACC-257 melanoma) of over 100 µM, a TGI (TK-10 renal) of over 100 µM and a TGI (MDA-MB-231 breast) of over 100 µM. For the same compound, the TGI (MDA-MB-435) was over 100 µM, the TGI (CAKI-1 renal) was 16.6 µM and the TGI (SF-539 CNS) was over 100 µM. It also gave a TGI (M14 melanoma) of over 100 µM, a TGI (OVCAR-3 ovarian) of over 100 µM and a TGI (UO-31 renal) of over 100 µM. For the same compound, the TGI (T-47D breast) was over 100 µM, the TGI (SF-268 CNS) was over 100 µM and the TGI (RXF 393 renal) was over 100 µM. The TGI (SK-MEL-28 melanoma) was over 100 µM, the TGI (SW-620 colon) was over 100 µM and the TGI (MOLT-4 leukemia) was over 100 µM. It also gave a TGI (OVCAR-5 ovarian) of over 100 µM, a TGI (LOX IMVI melanoma) of over 100 µM and a TGI (MDA-N) of over 100 µM. The TGI (HS 578T breast) was over 100 µM, the TGI (NCI-H460 lung) was over 100 µM and the TGI (UACC-62 melanoma) was over 100 µM. For the same compound, the TGI (HL-60(TB) leukemia) was over 100 µM, the TGI (HOP-62 NSCLC) was over 100 µM and the TGI (ACHN renal) was over 100 µM. The TGI (HT29 colon) was over 100 µM, the TGI (KM12 colon) was over 100 µM and the TGI (MALME-3M melanoma) was over 100 µM. The TGI (A549 NSCLC) was over 100 µM, the TGI (SNB-19 CNS) was over 100 µM and the TGI (HCT-15 colon) was over 100 µM. It also gave a TGI (NCI-H23 lung) of over 100 µM, a TGI (BT-549 breast) of over 100 µM and a TGI (SK-MEL-2 melanoma) of over 100 µM. For the same compound, the TGI (SK-OV-3 ovarian) was over 100 µM, the TGI (786-0 renal) was over 100 µM and the TGI (SNB-75 CNS) was over 100 µM. For the same compound, the TGI (DU-145 prostate) was over 100 µM, the TGI (SR leukemia) was over 100 µM and the TGI (NCI/ADR-RES ovarian) was over 100 µM. For the same compound, the TGI (K-562 leukemia) was over 100 µM, the TGI (SN12C renal) was over 100 µM and the TGI (HCC-2998 colon) was over 100 µM. The TGI (MCF7 breast) was over 100 µM, the TGI (SK-MEL-5 melanoma) was over 100 µM and the TGI (OVCAR-8 ovarian) was over 100 µM. For the same compound, the TGI (HCT-116 colon) was over 100 µM, the TGI (IGROV1 ovarian) was over 100 µM and the TGI (NCI-H226 lung) was 91.1 µM. For the same compound, the TGI (PC-3 prostate) was over 100 µM, the TGI (RPMI-8226 leukemia) was over 100 µM and the TGI (OVCAR-4 ovarian) was over 100 µM. For the same compound, the TGI (EKVX NSCLC) was over 100 µM, the TGI (U251 CNS) was over 100 µM and the TGI (CCRF-CEM leukemia) was over 100 µM. For the same compound, the TGI (COLO 205 colon) was over 100 µM and the TGI (SF-295 CNS) was over 100 µM.
`O=C1/C(=C/c2cccc([N+](=O)[O-])c2)N=C(c2ccccc2)N1c1nc2c(Cl)cc(Cl)cc2s1` showed a TGI (UACC-257 melanoma) of over 100 µM, a TGI (TK-10 renal) of over 100 µM and a TGI (MDA-MB-231 breast) of over 100 µM. The TGI (MDA-MB-435) was 46 µM, the TGI (CAKI-1 renal) was over 100 µM and the TGI (SF-539 CNS) was 48.1 µM. It also gave a TGI (M14 melanoma) of 46.8 µM, a TGI (OVCAR-3 ovarian) of 39.1 µM and a TGI (UO-31 renal) of 49.6 µM. For the same compound, the TGI (T-47D breast) was 68.9 µM, the TGI (SF-268 CNS) was 78.1 µM and the TGI (RXF 393 renal) was 55 µM. For the same compound, the TGI (SK-MEL-28 melanoma) was over 100 µM, the TGI (SW-620 colon) was 73.1 µM and the TGI (MOLT-4 leukemia) was 71.8 µM. For the same compound, the TGI (OVCAR-5 ovarian) was 87.9 µM, the TGI (LOX IMVI melanoma) was 32.7 µM and the TGI (MDA-N) was 39.2 µM. The TGI (HS 578T breast) was 73.6 µM, the TGI (NCI-H460 lung) was over 100 µM and the TGI (UACC-62 melanoma) was over 100 µM. It also gave a TGI (HL-60(TB) leukemia) of 60.9 µM, a TGI (HOP-62 NSCLC) of 45 µM and a TGI (ACHN renal) of 74.2 µM. The TGI (HT29 colon) was 40 µM, the TGI (KM12 colon) was 45 µM and the TGI (A549 NSCLC) was 52.2 µM. It also gave a TGI (SNB-19 CNS) of 65.4 µM, a TGI (HOP-92 NSCLC) of 77.9 µM and a TGI (HCT-15 colon) of over 100 µM. It also gave a TGI (BT-549 breast) of 94.6 µM, a TGI (SK-MEL-2 melanoma) of 48 µM and a TGI (SK-OV-3 ovarian) of 85.7 µM. For the same compound, the TGI (786-0 renal) was over 100 µM, the TGI (A498 renal) was 57.8 µM and the TGI (DU-145 prostate) was 70.1 µM. It also gave a TGI (SR leukemia) of 57.9 µM, a TGI (NCI/ADR-RES ovarian) of 85.4 µM and a TGI (K-562 leukemia) of over 100 µM. It also gave a TGI (SN12C renal) of 54.7 µM, a TGI (HCC-2998 colon) of 61.9 µM and a TGI (MCF7 breast) of 93.8 µM. The TGI (SK-MEL-5 melanoma) was 33.5 µM, the TGI (OVCAR-8 ovarian) was 49.5 µM and the TGI (HCT-116 colon) was 37.4 µM. For the same compound, the TGI (IGROV1 ovarian) was 58.2 µM, the TGI (PC-3 prostate) was 64.4 µM and the TGI (RPMI-8226 leukemia) was over 100 µM. It also gave a TGI (OVCAR-4 ovarian) of 71.8 µM, a TGI (EKVX NSCLC) of 53.3 µM and a TGI (U251 CNS) of 37.2 µM. The TGI (CCRF-CEM leukemia) was 23.5 µM, the TGI (COLO 205 colon) was over 100 µM and the TGI (SF-295 CNS) was over 100 µM.
In the case of `CCOc1ccc(N=NC2C(=O)N(C(=O)CC(=O)Nc3ccc(C)cc3)N=C2C)cc1` (centres undefined), the TGI (UACC-257 melanoma) is reported as over 100 µM, the TGI (TK-10 renal) is reported as 93.2 µM and the TGI (MDA-MB-231 breast) is reported as 35.8 µM. It also gave a TGI (MDA-MB-435) of 10.9 µM, a TGI (CAKI-1 renal) of over 100 µM and a TGI (SF-539 CNS) of 36.5 µM. For the same compound, the TGI (M14 melanoma) was over 100 µM, the TGI (OVCAR-3 ovarian) was over 100 µM and the TGI (UO-31 renal) was 78.7 µM. For the same compound, the TGI (T-47D breast) was over 100 µM, the TGI (SF-268 CNS) was 75.2 µM and the TGI (SK-MEL-28 melanoma) was over 100 µM. The TGI (SW-620 colon) was over 100 µM, the TGI (MOLT-4 leukemia) was over 100 µM and the TGI (OVCAR-5 ovarian) was over 100 µM. The TGI (LOX IMVI melanoma) was 27.7 µM, the TGI (MDA-N) was 13.9 µM and the TGI (HS 578T breast) was 40.1 µM. For the same compound, the TGI (NCI-H460 lung) was 43.8 µM, the TGI (UACC-62 melanoma) was 52.6 µM and the TGI (HL-60(TB) leukemia) was over 100 µM. It also gave a TGI (HOP-62 NSCLC) of 34.3 µM, a TGI (ACHN renal) of over 100 µM and a TGI (HT29 colon) of over 100 µM. For the same compound, the TGI (KM12 colon) was over 100 µM, the TGI (MALME-3M melanoma) was over 100 µM and the TGI (A549 NSCLC) was over 100 µM. The TGI (SNB-19 CNS) was 51 µM, the TGI (HOP-92 NSCLC) was 39.9 µM and the TGI (HCT-15 colon) was over 100 µM. It also gave a TGI (NCI-H23 lung) of over 100 µM, a TGI (BT-549 breast) of over 100 µM and a TGI (SK-MEL-2 melanoma) of over 100 µM. For the same compound, the TGI (786-0 renal) was 29.5 µM, the TGI (SNB-75 CNS) was 23.2 µM and the TGI (A498 renal) was 52.5 µM. It also gave a TGI (DU-145 prostate) of over 100 µM, a TGI (SR leukemia) of over 100 µM and a TGI (NCI/ADR-RES ovarian) of 79.2 µM. For the same compound, the TGI (SN12C renal) was over 100 µM, the TGI (HCC-2998 colon) was over 100 µM and the TGI (MCF7 breast) was over 100 µM. It also gave a TGI (SK-MEL-5 melanoma) of over 100 µM, a TGI (OVCAR-8 ovarian) of 31.2 µM and a TGI (HCT-116 colon) of 25.8 µM. For the same compound, the TGI (IGROV1 ovarian) was over 100 µM, the TGI (NCI-H226 lung) was 88.4 µM and the TGI (PC-3 prostate) was over 100 µM. For the same compound, the TGI (OVCAR-4 ovarian) was 95.7 µM, the TGI (EKVX NSCLC) was 40.9 µM and the TGI (U251 CNS) was 32.2 µM. For the same compound, the TGI (CCRF-CEM leukemia) was over 100 µM, the TGI (COLO 205 colon) was over 100 µM and the TGI (SF-295 CNS) was 49.4 µM.
